In ChEMBL document CHEMBL1145463, “Clonal spread of mef-positive macrolide-resistant Streptococcus pneumoniae isolates causing invasive disease in adults in Germany” (2007) one finds MIC90 data, which are given here for one compound.

Converted amounts (≈) assume the structure as drawn.

The test deals with Streptococcus pneumoniae. The experiment in a line: Antibacterial activity against telithromycin-susceptible Streptococcus pneumoniae. It is filed as functional.

One may read the MIC90 as an inhibitory concentration at the 90% level, which refers to growth in some studies and to a panel of isolates in others. A high value points to weaker potency. Compound `CC[C@H]1OC(=O)[C@H](C)C(=O)[C@H](C)[C@@H](O[C@@H]2O[C@H](C)C[C@H](N(C)C)[C@H]2O)[C@](C)(OC)C[C@@H](C)C(=O)[C@H](C)[C@H]2N(CCCCn3cnc(-c4cccnc4)c3)C(=O)O[C@]12C` [TELITHROMYCIN] returned an MIC90 of 0.12 µg/mL (≈ 0.148 µM).
